Assay results from patent US12558345B2, “CHK1/2 inhibitors for use in the treatment of neuroblastomas and/or soft tissue sarcomas” (Eli Lilly and Company, priority 2015, dated 2026).
Counter-ions that a name gives are not always drawn. Like-named read-outs stand apart in the source and are kept apart here.

Tests used:
[1] = test system: ST240 LMS patient-derived xenograft; assay: Xenograft Tumor Model ST240; format: in vivo, mouse; conditions: comparator day 29, p-value 0.022
Experimental: (§1) For all “ST” models (encompassing RMS and LMS), patient-derived xenografts are established from viable human tumor tissue and are serially passaged in animals a limited number of times to maintain tumor heterogeneity. In subcutaneous models, athymic nude mice (Crl:NU(NCr)-Foxn1nu) or CB-17 SCID mice (CRL-CB17/Icr-Prkdcscid/IcrIcoCrl) are injected or implanted unilaterally into the flank with tumor fragments harvested from host animals, each implanted from a specific passage lot. For all studies, measure tumor growth and body weight twice per week beginning on the seventh day after implantation. When tumor size reaches 150-300 mm^3, randomize animals and group into groups of 4-7 animals. Prepare test compound in an appropriate vehicle (e.g. vehicle can be 20% Captisol® in sterile water) and administer subcutaneously for three consecutive days followed by a four day dosing holiday and repeat for a minimum of four weeks. Tumor response is determined by tumor volume measurement performed twice per week during the course of treatment.

[2] = test system: KELLY human NBM cancer cell xenograft; assay: Xenograft Tumor Model KELLY; format: in vivo, mouse; conditions: comparator day 49, p-value <0.001
Experimental: (§2) The following protocol can be used to measure reductions in tumor volume in response to an active pharmaceutical ingredient. Expand human NBM cancer cells SH-SY5Y (ATCC, #CRL-2226) in culture, harvest, and inject 5×10^6 cells in 200 μL of 1:1 solution of HBSS and Matrigel® subcutaneously into the right rear flank of female CD-1 nu/nu mice (20-24 g, Charles River Laboratories). Expand human NBM cancer cells KELLY (Sigma-#92110411) in culture, harvest, and inject 5×10^6 cells in 200 μL of 1:1 solution of HBSS and Matrigel® subcutaneously into the right rear flank of female CB-17 SCID mice (20-24 g, Charles River Laboratories). Expand human NBM cancer cells IMR-32 (ATCC, #CCL-127) in culture, harvest, and inject 5×10^6 cells in 200 μL of 1:1 solution of HBSS and Matrigel® subcutaneously into the right rear flank of female CB-17 SCID mice (20-24 g, Charles River Laboratories).
(§3) For all “ST” models (encompassing RMS and LMS), patient-derived xenografts are established from viable human tumor tissue and are serially passaged in animals a limited number of times to maintain tumor heterogeneity. […] Tumor response is determined by tumor volume measurement performed twice per week during the course of treatment.

[3] = test system: DSRCT xenograft models; assay: Sarcoma xenograft models by tumor subtype: DSRCT; format: in vivo, mouse
Experimental: (§4) The efficacy of 5-(5-(2-(3-aminopropoxy)-6-methoxyphenyl)-1H-pyrazol-3-ylamino)pyrazine-2-carbonitrile methanesulfonic acid monohydrate is measurable in vivo in mouse models of neuroblastomas and human pediatric and adult sarcomas. 5-(5-(2-(3-Aminopropoxy)-6-methoxyphenyl)-1H-pyrazol-3-ylamino)pyrazine-2-carbonitrile methanesulfonic acid monohydrate (10 mg/kg) can be administered subcutaneously to nude mice bearing either cell-derived xenografts (CDX) or patient-derived xenografts (PDX) of human rhabdomyosarcoma, desmoplastic small round cell tumor (DSRCT), osteosarcoma, and Ewing's sarcoma using a 3 day on, 4 day off b.i.d. dosing schedule. Tumor volume and body weight can be measured two times per week. Tumor-specific parameters can be evaluated by immumohistochemistry.
(§5) For all “CTG” models (encompassing human RMS, DSRCT, EWS, OS and LMS patient-derived xenograft models), female NCr nude spontaneous mutant mice (5-8 weeks old, Taconic) are implanted unilaterally in the flank region with tumor fragments harvested from donor animals, each implanted from a specific passage lot.
as §1

[4] = test system: ST658 LMS patient-derived xenograft; assay: Xenograft Tumor Model ST658; format: in vivo, mouse; conditions: comparator day 16, p-value 0.592
Experimental: as §1

[5] = test system: Ewing's Sarcoma xenograft models; assay: Sarcoma xenograft models by tumor subtype: Ewing's Sarcoma; format: in vivo, mouse; conditions: age of patients 8-17 years
Experimental: as §4, with “immumohistochemistry. […]” for “immumohistochemistry.”
as §3

[6] = test system: CTG-1006 LMS patient-derived xenograft; assay: Xenograft Tumor Model CTG-1006; format: in vivo, mouse; conditions: comparator day 27, p-value <0.001
Source text: as §5, §1

[7] = test system: CTG-1213 RMS patient-derived xenograft; assay: Xenograft Tumor Model CTG-1213; format: in vivo, mouse
Experimental: as §4, with “immumohistochemistry. […]” for “immumohistochemistry.”
as §3

[8] = test system: IMR-32 human NBM cancer cell xenograft; assay: Xenograft Tumor Model IMR-32; format: in vivo, mouse; conditions: IMR-32, NBM, comparator day 66, p-value <0.001
Experimental: as §2, §3

[9] = test system: SJCRH-30 RMS xenograft; format: in vivo; conditions: for % T/C: SJCRH-30, RMS
Experimental: Expand human RMS cancer cells SJCRH-30 (St. Jude Children's Research Hospital) in culture, harvest, and inject 5×10^6 cells in 200 μL of HBSS subcutaneously into the right rear flank of female athymic nude mice (20-22 g, Harlan Laboratories).
The vehicle used in this study is 20% Captisol® in sterile water and is administered subcutaneously for three consecutive days followed by a four day dosing holiday and repeated for a minimum of four weeks. […] The treatment period lasts 4 weeks.

[10] = test system: Calu-6 lung tumor xenograft; assay: Human Tumor Xenograft Models, with gemcitabine: Calu-6; format: in vivo, mouse
Experimental: The ability of CHK1 inhibitors to effect tumor killing can be determined in vivo using the Calu-6 lung and HT-29 colon tumor xenograft efficacy models. Calu-6 lung cancer cells (ATCC) are cultured in growth media (MEM w/ Earle's salts (Invitrogen) with L-glutamine (Gibco™) supplemented with 10% (v/v) heat inactivated FBS (Gibco™), 1×MEM non-essential amino acids (Gibco™), 1×sodium pyruvate (Gibco™)) and HT-29 colon cancer cells (ATCC) are cultured in growth media, (McCoy's 5A medium (Gibco™) supplemented with 10% FBS (Gibco™)) and expanded. Cells are harvested and washed twice with phosphate buffered saline and 5×10^6 cells (HT-29) or 1×10^6 cells (Calu-6) in growth media (without serum) are mixed with equal volume of BD Matrigel™ matrix (BD Bioscience, Franklin, NJ), then injected subcutaneously into the flank of nude mice (CD-1 nu/nu, from Charles River Labs, Wilmington, MA). At about day 16 after implant (150-200 mm^3), gemcitabine is formulated fresh in saline daily and administered to animals by intraperitoneal route at 60 mg/kg dose. […] Tumor response is determined by tumor volume measurement performed twice a week during the course of treatment. Tumor growth inhibition (TGI) is calculated as the percent reduction in mean tumor size of a compound treated group from the mean tumor size of the vehicle-treated control group.

[11] = test system: Calu-6 lung xenograft; assay: Single Agent Efficacy Dosing, Calu-6 xenograft; format: in vivo, mouse; conditions: Calu-6, 15 mg/kg SC, BID×5 rest 2 days ×3 cycles
Experimental: The ability of CHK1 inhibitors to effect tumor killing can be determined in vivo using the Calu-6 lung xenograft efficacy model. Calu-6 lung cancer cells (ATCC) are cultured as described above. Cells are harvested and washed twice with phosphate buffered saline and 1×10^6 cells (Calu-6) in growth media (without serum) are mixed with equal volume of BD Matrigel™ matrix (BD Bioscience, Franklin, NJ), then injected subcutaneously into the flank of nude mice (CD-1 nu/nu, from Charles River Labs, Wilmington, MA).

COc1cccc(OCCCN)c1-c1cc(Nc2cnc(C#N)cn2)n[nH]1 [Example 5, 5-(5-(2-(3-Aminopropoxy)-6-methoxyphenyl)-1H-pyrazol-3-ylamino)pyrazine-2-carbonitrile methanesulfonic acid monohydrate]
% T/C [1]: 67%
% Regression [2]: −88%
Result of Treatment: Complete Response (models) ([3]; DSRCT, age of patients 20 years): 1/1 Complete
tumor response when re-challenged ([3]; PDX model of DSRCT, after regrowth): tumor regression
time post-treatment at which tumor growth is observed ([3]; PDX model of DSRCT, upon cessation of therapy): 50 days
tumor response in a PDX model of DSRCT ([3]; following four dosing cycles): complete regression
% T/C [4]: 137%
Result of Treatment: Stable Disease (models) [5]: 1/4 Stable Disease
% Regression [6]: −24%
% T/C ([7]; comparator day 18, p-value 0.004): 18%
% Regression ([7]; comparator day 36, p-value <0.001): −65%
% Regression [8]: −72%
% T/C ([9]; comparator day 46): 0.1%
% T/C ([9]; comparator day 56): 58%
tumor response as a single agent ([9]; SJCRH-30, SC three days on, four day holiday, 4 weeks, tumor regrowth occurs from day 38): initial complete response until day 38
effect on acquired resistance in SJCRH30 xenografts ([9]; combination with doxorubicin, ifosfamide, or irinotecan): appears to circumvent the acquired resistance

COc1cccc(OCCCN)c1-c1cc(Nc2cnc(C#N)cn2)n[nH]1 [Example 2, 5-(5-(2-(3-Aminopropoxy)-6-methoxyphenyl)-1H-pyrazol-3-ylamino)pyrazine-2-carbonitrile dihydrogen chloride salt]
increase in tumor growth inhibition over gemcitabine alone ([10]; Calu-6, combination with gemcitabine): up to a six-fold increase
anti-tumor activity ([10]; Calu-6, dosed alone and in combination with gemcitabine 60 mg/kg ip, compound iv +24 hours, Q3Dx4): excellent dose dependent anti-tumor activity
growth inhibition compared with gemcitabine plus compound combination schedule [11]: superior growth inhibition
tumor regression [11]: Complete tumor regression is rapid and durable
